# Test results: patent US6689808B2, “Substituted phthalides, a process for their preparations and pharmaceutical compositions containing them” (Les Laboratoires Servier, priority 2000, dated 2004)
row,melting point,Structure (SMILES)
1,124 to 125 °C,"CCCCCCCCC1OC(=O)c2cc(N)ccc21 (stereo not drawn) [Example 6, 6-Amino-3-octyl-phthalide]"
2,135 to 137 °C,"CCCCCCC1OC(=O)c2cc(NC(C)=O)ccc21 (stereo not drawn) [Example 8, 6-Acetamido-3-hexyl-phthalide]"
3,133 to 134 °C,"CCCCCCCCC1OC(=O)c2cc(NC(C)=O)ccc21 (stereo not drawn) [Example 9, 6-Acetamido-3-octyl-phthalide]"
4,183 to 185 °C,"CCCCC1OC(=O)c2cc(NC(N)=S)ccc21 (stereo not drawn) [Example 21, 3-Butyl-6-thioureido-phthalide]"
5,98.5 to 100 °C,"CCC1(CC)OC(=O)c2cc([N+](=O)[O-])ccc21 [Example 24, 3,3-Diethyl-6-nitro-phthalide]"
6,153 to 154 °C,"CCC1(CC)OC(=O)c2cc(N)ccc21 [Example 25, 6-Amino-3,3-diethyl-phthalide]"
